Laboratory results published in patent EP4740947A1, “PHARMACEUTICAL COMBINATION OF EGFR KINASE INHIBITOR AND C-MET KINASE INHIBITOR FOR TREATING TUMOR DISEASES” (Jiangsu AoSaiKang Pharmaceutical Co., Ltd., priority 2023, dated 2025).

What was measured:
NCI-H1975-HGF = test: Efficacy study in xenograft model established with engineered cell line NCI-H1975-HGF in immunodeficient mice; assay type: in vivo, B-NDG mice; conditions: for NCI-H1975 HGF tumor volume (mm^3): mean ± standard error; for TGI (%) / ΔT/ΔC (%): Day 15 vs vehicle
Description: The efficacy of the test drugs in a xenograft model established with the engineered cell line NCI-H1975-HGF in immunodeficient mice was verified.
Table 1. Cell information
B-NDG mice, female, age: 8 weeks, weight: 18-22 g, purchased from Biocytogen.
• Vehicle: 20% solutol/80% 100 mM sodium acetate buffer pH 5.5; • ASK-MET: hydrochloride of the compound of Formula (II), prepared with 20% solutol/80% 100 mM sodium acetate buffer pH 5.5, concentration: 0.2 mg/mL; • ASK-EGFR: compound of Formula (I), prepared with 0.5% sodium carboxymethyl cellulose solution (0.5%CMC-Na), concentration: 2 mg/mL. • Solutol: polyethylene glycol-15 hydroxystearate; • 100 mM sodium acetate buffer pH 5.5; • 20% solutol/80% 100 mM sodium acetate buffer pH 5.5 means that the volume ratio of solutol to 100 mM sodium acetate buffer pH 5.5 in the drug solution was 20:80, the same below.
1) NCI-H1975-HGF was resuscitated and cultured in vitro to obtain 1.5*10^7 cells. 2) 15 8-10-week-old immunodeficient mice were adaptively raised for 1 week, and weighed. Table 2. Inoculation information
(§1) 4) After inoculation, the tumor volume and weight were measured twice a week. When the average tumor volume reached about 100 mm^3, the animals were randomly divided into 4 groups according to the tumor volume and weight, each group having 3 animals. The animals were immediately administered after grouping. The day of administration was regarded as day 0. Table 3. Grouping and administration information
After inoculation and before grouping, when the tumor was visible, the tumor volume of the test animals was measured once a week. After grouping, the tumor volume of animals in the experiment was measured twice a week. The tumor volume was measured by a two-way measurement method. The major and minor diameter of the tumor were measured by vernier caliper, and then the tumor volume was calculated by the formula TV = 1/2 × a × b^2, where a is the major diameter of the tumor and b is the minor diameter of the tumor.
At the end of the experiment, the following analysis methods were used for data analysis (Table 4). Table 4. Data analysis methods
For an experiment having two groups, T-Test analysis method is used; and for comparison of three or more groups, One-Way ANOVA method is used for analysis. For the potential synergistic effect, Two-Way ANOVA is used. There is a significant difference when p value is less than 0.05.

[1] = Body weight monitoring and daily observation in the NCI-H1975-HGF xenograft model; assay type: in vivo
Description: as §1
After inoculation, the disease attack and death of animals were observed every working day. Daily observation includes tumor growth and the effects of drugs on test animals, such as changes in activity, changes in food and water intake, weight loss, appearance changes in hair and eyes, death and other clinical symptoms.
After inoculation and before grouping, the weight of test animals was measured once a week. After grouping, the weight of the test animals was measured twice a week.

[2] = Day 0, ASK-MET 2 mg/kg p.o. QD×15 (G2)
[3] = Day 2, ASK-MET 2 mg/kg p.o. QD×15 (G2)
[4] = Day 5, ASK-MET 2 mg/kg p.o. QD×15 (G2)
[5] = Day 8, ASK-MET 2 mg/kg p.o. QD×15 (G2)
[6] = Day 12, ASK-MET 2 mg/kg p.o. QD×15 (G2)
[7] = Day 15, ASK-MET 2 mg/kg p.o. QD×15 (G2)
[8] = ASK-MET 2 mg/kg p.o. QD×15 (G2)
[9] = Day 0, ASK-EGFR 20 mg/kg p.o. QD×15 (G4)
[10] = Day 2, ASK-EGFR 20 mg/kg p.o. QD×15 (G4)
[11] = Day 5, ASK-EGFR 20 mg/kg p.o. QD×15 (G4)
[12] = Day 8, ASK-EGFR 20 mg/kg p.o. QD×15 (G4)
[13] = Day 12, ASK-EGFR 20 mg/kg p.o. QD×15 (G4)
[14] = Day 15, ASK-EGFR 20 mg/kg p.o. QD×15 (G4)
[15] = ASK-EGFR 20 mg/kg p.o. QD×15 (G4)

With `CC(C)(O)CN1CCC(COc2cnc(-c3cccc(Cn4c(=O)ccn5c6cc(C#N)ccc6nc45)c3)nc2)CC1` [ASK-MET] the “NCI-H1975 HGF tumor volume (mm^3)” value (NCI-H1975-HGF; [2]) was 96.28 ±7.10 mm^3, the “NCI-H1975 HGF tumor volume (mm^3)” value (NCI-H1975-HGF; [3]) was 147.46 ±23.06 mm^3 and the “NCI-H1975 HGF tumor volume (mm^3)” value (NCI-H1975-HGF; [4]) was 274.61 ±85.69 mm^3. The “NCI-H1975 HGF tumor volume (mm^3)” value (NCI-H1975-HGF; [5]) was 434.60 ±55.60 mm^3, the “NCI-H1975 HGF tumor volume (mm^3)” value (NCI-H1975-HGF; [6]) was 658.86 ±111.99 mm^3 and the “NCI-H1975 HGF tumor volume (mm^3)” value (NCI-H1975-HGF; [7]) was 940.03±159.86 mm^3. The “TGI (%)” value (NCI-H1975-HGF; [8]) was 28.48%, the “ΔT/ΔC (%)” value (NCI-H1975-HGF; [8]) was 71.52% and the “Weight” value [1, 2] was 20.3 ± 1.0 g. The “Weight” value [1, 3] was 20.3 ± 1.3 g, the “Weight” value [1, 4] was 20.5 ± 1.0 g and the “Weight” value [1, 5] was 20.8 ± 0.3 g. The “Weight” value [1, 6] was 20.8 ± 0.4 g and the “Weight” value [1, 7] was 20.5 ± 0.4 g.

For `C=CC(=O)Nc1cc(Nc2ncc(Cl)c(Nc3ccc4ccccc4c3)n2)c(OC)cc1N(C)CCN(C)C` [ASK-EGFR, N-((5-((5-chloro-4-((naphthalen-2-yl)amino))pyrimidin-2-yl)amino)-2-((N-methyl-N-dimethylaminoethyl)amino)-4-methoxyphenyl) acrylamide], the “NCI-H1975 HGF tumor volume (mm^3)” value (NCI-H1975-HGF; [9]) was 94.47 ±9.54 mm^3, the “NCI-H1975 HGF tumor volume (mm^3)” value (NCI-H1975-HGF; [10]) was 154.47 ±24.23 mm^3 and the “NCI-H1975 HGF tumor volume (mm^3)” value (NCI-H1975-HGF; [11]) was 201.41 ±24.69 mm^3. For the same compound, the “NCI-H1975 HGF tumor volume (mm^3)” value (NCI-H1975-HGF; [12]) was 357.90 ±31.91 mm^3, the “NCI-H1975 HGF tumor volume (mm^3)” value (NCI-H1975-HGF; [13]) was 440.56 ±16.92 mm^3 and the “NCI-H1975 HGF tumor volume (mm^3)” value (NCI-H1975-HGF; [14]) was 589.86±36.92 mm^3. For the same compound, the “TGI (%)” value (NCI-H1975-HGF; [15]) was 58.01%, the “ΔT/ΔC (%)” value (NCI-H1975-HGF; [15]) was 41.99% and the “Weight” value [1, 9] was 22.0 ± 0.1 g. The “Weight” value [1, 10] was 21.9 ± 0.2 g, the “Weight” value [1, 11] was 22.1 ± 0.1 g and the “Weight” value [1, 12] was 21.1 ± 0.3 g. The “Weight” value [1, 13] was 21.5 ± 0.6 g and the “Weight” value [1, 14] was 21.0 ± 0.5 g.
